{"source": "the NIST ThermoML archive (doi:10.1021/acs.jced.6b00361)", "key": {"[1]": {"conditions": "Crystal; DTA"}, "[2]": {"test": "Molar enthalpy of transition or fusion", "conditions": "Crystal; DSC"}}, "note": "± gives the expanded uncertainty stated by the source.", "data": [{"smiles": "O=C(O)C=Cc1ccc(O)cc1", "note": "[3-(4-hydroxyphenyl)-2-propenoic acid]", "values": [{"measurement": "Normal melting temperature", "setting": "[1]", "result": "221.2 ± 0.5", "unit": "°C"}, {"measurement": "Molar enthalpy of transition or fusion", "setting": "[2]", "result": "8.2 ± 0.239", "unit": "kcal/mol"}]}]}
